Patent publication US8158621B2, “Methods of treating or preventing autoimmune diseases with 2,4-pyrimidinediamine compounds” (Rigel Pharmaceuticals, Inc., priority 2002, dated 2012)

Legend:
Jurkat cells = assay: Jurkat toxicity, Cell Titer Glo assay; assay type: cell-based, human
Procedure: Seed 50 μl cells (1×10^6/ml) into each well containing 50 μl compound. […] Shake plates for 1 minute to mix cells and compound. Incubate plates at 37° C. […] Next day, harvest 50 μl cells from each well, add to 50 μl Cell Titer Glo reagent ([…]). Shake plates for 1 minute. Read on luminometer.

[1] = system: cultured human mast cells (CHMC); assay: CHMC low cell density IgE activation: tryptase assay; assay type: cell-based
Summary of the method: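 Cultured human mast cells (1000-1500 cells/well, donor-dependent) equilibrated 1 hr at 37° C, then stimulated with anti-IgE for 30 min at 37° C. Tryptase released into the supernatant is measured with a fluorogenic tryptase substrate after 30 min at room temperature.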

[2] = system: cultured human mast cells (CHMC); assay: CHMC high cell density IgE activation: IL-13; assay type: cell-based
Procedure: After sensitizing, cells are counted, pelleted (1000 rpm, 5-10 minutes), and resuspended at 1-2 ×10^6 cells/ml in MT buffer. Add 100 ul of cell suspension to each well and 100 ul of compound dilutions. The final vehicle concentration is 0.5% DMSO. Incubate at 37° C. (5% CO2) for 1 hour. After 1 hour of compound treatment, stimulate cells with 6× anti-IgE. Mix wells with the cells and allow plates to incubate at 37° C. (5% CO2) for one hour. After 1 hour incubation, pellet cells (10 minutes, 1000 RPM) and collect 200 ul per well of the supernatant, being careful not to disturb pellet. Place the supernatant plate on ice. During the 7-hour step (see next) perform tryptase assay on supernatant that had been diluted 1:500. Resuspend cell pellet in 240 ul of CM media containing 0.5% DMSO and corresponding concentration of compound. Incubate CHMC cells for 7 hours at 37° C. (5% CO2). After incubation, pellet cells (1000 RPM, 10 minutes) and collect 225 ul per well and place in −80° C. until ready to perform ELISAS. ELISAS are performed on appropriately diluted samples (determined empirically for each donor cell population so that the sample measurement falls within the standard curve) following the supplier's instructions.

[3] = system: cultured human mast cells (CHMC); assay: CHMC high cell density IgE activation: histamine; assay type: cell-based
Summary of the method: (§1)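 IgE-sensitized CHMC at 1-2 ×10^6 cells/ml were preincubated with compound (0.5% DMSO) for 1 h at 37 °C, then stimulated with anti-IgE for 1 h before supernatant collection. Pellets were reincubated with compound for 7 h at 37 °C, and mediators were measured by ELISA on diluted supernatants.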

[4] = system: cultured human mast cells (CHMC); assay: CHMC high cell density IgE activation: tryptase; assay type: cell-based
[5] = system: cultured human mast cells (CHMC); assay: CHMC low cell density ionomycin activation: tryptase assay; assay type: cell-based
[6] = system: cultured human mast cells (CHMC); assay: CHMC high cell density IgE activation: hexos; assay type: cell-based
B-cell line BJAB = assay: BJAB toxicity, Cell Titer Glo assay; assay type: cell-based
Procedure: Seed 50 μl cells (1×10^6/ml) into each well containing 50 μl compound. The final vehicle concentration is 0.5% DMSO, 1.5% MeOH. Shake plates for 1 minute to mix cells and compound. Incubate plates at 37° C. (5% CO2) for 18 hours. Next day, harvest 50 μl cells from each well, add to 50 μl Cell Titer Glo reagent ([…]). Shake plates for 1 minute. Read on luminometer.

[7] = system: cultured human mast cells (CHMC); assay: CHMC high cell density IgE activation: LTC4; assay type: cell-based
Summary of the method: as §1

[8] = system: Human Jurkat T-cells (clone N); assay: Jurkat T-cell activation (anti-TCR, CD69 upregulation); assay type: cell-based
Summary of the method: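 Jurkat cells in RPMI + 5% FBS preincubated with compound 1 h at 37 °C, then stimulated with anti-TCR C305 at 500 ng/ml for 20 h. CD69 surface expression stained with anti-CD69-APC and read by flow cytometry; IC50 versus solvent-only control.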

[9] = system: cultured human mast cells (CHMC); assay: CHMC high cell density IgE activation: TNFalpha; assay type: cell-based; conditions: read-out: CHMC high density TNF-alpha
Summary of the method: as §1

Syk kinase [10] = molecular target: T1, Syk kinase (Homo sapiens, UniProt P43405); assay: Syk kinase biochemical fluorescence polarization assay; conditions: isolated Syk kinase, fluorescence polarization, 4 uM ATP
T1 construct: purchased Upstate, Lake Placid NY

[11] = system: bone marrow derived mast cells (BMMC); assay: BMMC high cell density IgE activation: LTC4; assay type: cell-based, mouse; conditions: High Density section of TABLE 1, BMMC, anti-IgE activation, LTC4; read-out: BMMC anti-IgE LTC4 IC50
Procedure: (§2) After sensitizing, cells are counted, pelleted (1000 rpm, 5-10 minutes), and resuspended at 1-3×10^6 cells/ml in MT buffer. Add 100 ul of cell suspension to each well and 100 ul of compound dilutions. The final vehicle concentration is 0.5% DMSO. Incubate at 37° C. (5% CO2) for 1 hour. After 1 hour of compound treatment, stimulate cells with 6× stimulus (60 ng/ml DNP-BSA). Mix wells with the cells and allow plates to incubate at 37° C. (5% CO2) for one hour. After 1 hour incubation, pellet cells (10 minutes, 1000 RPM) and collect 200 ul per well of the supernatant, being careful not to disturb pellet, and transfer to a clean tube or 96-well plate. Place the supernatant plate on ice. During the 4-5 hour step (see next) perform the hexosiminidase assay. Resuspend cell pellet in 240 ul WEI-conditioned media containing 0.5% DMSO and corresponding concentration of compound. Incubate BMMC cells for 4-5 hours at 37° C. (5% CO2). After incubation, pellet cells (1000 RPM, 10 minutes) and collect 225 ul per well and place in −80° C. until ready to perform ELISAS. ELISAS are performed on appropriately diluted samples (determined empirically for each donor cell population so that the sample measurement falls within the standard curve) following the supplier's instructions.

[12] = system: bone marrow derived mast cells (BMMC); assay: BMMC high cell density IgE activation: hexosaminidase; assay type: cell-based, mouse; conditions: High Density section of TABLE 1, BMMC, anti-IgE activation, hexosaminidase; read-out: BMMC anti-IgE hexos. IC50
[13] = system: bone marrow derived mast cells (BMMC); assay: BMMC high cell density IgE activation: IL-6; assay type: cell-based, mouse; conditions: High Density section of TABLE 1, BMMC, anti-IgE activation, IL-6; read-out: BMMC anti-IgE IL-6 IC50
Summary of the method: (§3)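 Mediator release from sensitized BMMC: after 1 h compound exposure at 37 °C (0.5% DMSO), cells challenged with DNP-BSA for 1 h and early supernatant collected. Cells then recultured 4-5 h in conditioned medium with compound; cytokines IL-6 and TNFα quantified by ELISA.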

[14] = system: bone marrow derived mast cells (BMMC); assay: BMMC high cell density IgE activation: TNFalpha; assay type: cell-based, mouse; conditions: High Density section of TABLE 1, BMMC, anti-IgE activation, TNFalpha; read-out: BMMC anti-IgE TNF-alpha IC50
Summary of the method: as §3

[15] = system: bone marrow derived mast cells (BMMC); assay: BMMC high cell density IgE activation: histamine; assay type: cell-based, mouse; conditions: High Density section of TABLE 1, BMMC, anti-IgE activation, histamine; read-out: BMMC anti-IgE histamine IC50
Procedure: as §2

[16] = system: basophil cells (human peripheral blood); assay: Basophil ionomycin activation: histamine release assay; assay type: cell-based; conditions: basophils, ionomycin activation, histamine release; read-out: Basophils Ionomycin Histamine IC50
Summary of the method: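 Dextran-sedimented leukocytes from peripheral blood of dust-mite-allergic human donors were incubated with compound (8 concentrations, 0.5% DMSO, triplicate) and then stimulated with 2 μM ionomycin stock (20 μl added) for 30 min at 37° C. Histamine released into the supernatant was measured by ELISA.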

Syk kinase [17] = assay: Phosphorylation of proteins in the FcεRI cascade in activated CHMC cells; assay type: cell-based, human; conditions: activated CHMC cells (FIG. 10)
Procedure: Following electrophoresis, the phosphorylation of the proteins indicated in FIGS. 7, 10 and 11A-D were assessed by immunoblot. Antibodies were purchased from Cell Signaling Technology, Beverley, Mass.

[18] = system: basophil cells (human peripheral blood); assay: Basophil dustmite activation: histamine release assay; assay type: cell-based; conditions: basophils, dust mite activation
Procedure: (§4) The basophil activation assay was carried out using whole human peripheral blood from donors allergic to dust mites with the majority of the red blood cells removed by dextran sedimentation. Human peripheral blood was mixed 1:1 with 3% dextran T500 and RBCs were allowed to settle for 20-25min. The upper fraction was diluted with 3 volumes of D-PBS and cells were spun down for 10 min at 1500 rpm, RT. Supernatant was aspirated and cells were washed in an equal volume MT-buffer. Finally, cells were resuspended in MT-buffer containing 0.5% DMSO in the original blood volume. 80 uL cells were mixed with 20 uL compound in the presence of 0.5% DMSO, in triplicate, in a V-bottom 96-well tissue culture plate. A dose range of 8 compound concentrations was tested resulting in a 10-point dose response curve including maximum (stimulated) and minimum (unstimulated) response. […] The cells were stimulated for 30 minutes at 37° C., 5% CO2. The plate was spun for 10 min at 1500 rpm at room temperature and 80 uL the supernatant was harvested for histamine content analysis using the histamine ELISA kit supplied by Immunotech. The ELISA was performed according to supplier's instructions.

[19] = system: basophil cells (human peripheral blood); assay: Basophil anti-IgE activation: histamine release assay; assay type: cell-based; conditions: basophils, anti-IgE activation, histamine release; read-out: Basophils anti-IgE Histamine IC50
Procedure: as §4

[20] = Low Density, read-out: CHMC anti-IgE Tryptase
[21] = Low Density, read-out: CHMC Ionomycin Tryptase
[22] = Low Density CHMC, ionomycin activation, tryptase release, read-out: CHMC Ionomycin Tryptase IC50

Row | SMILES | IC50 (Jurkat cells) | IC50 [1, 20] | IC50 [2] | IC50 [4] | IC50 [5, 21] | IC50 [6] | IC50 (B-cell line BJAB) | IC50 [8] | IC50 [9] | IC50 [11] | IC50 [12] | IC50 [13] | IC50 [14] | IC50 [15] | further results
1 | Cc1cc(Nc2ncc(F)c(Nc3cccc(O)c3)n2)cc(Cl)c1O [Compound R940233] | > 4.33 µM | 0.132 µM | 1.78 µM | 0.642 µM | > 10 µM | 0.577 µM | > 4.33 µM | 2.17 µM | 2.25 µM |  |  |  |  |  | IC50 [3]: 0.586 µM; IC50 [7]: 0.118 µM; IC50 (Syk kinase [10]): 0.151 µM
2 | Fc1cnc(Nc2cccc(OCCN3CCOCC3)c2)nc1Nc1ccc2c(c1)OCCO2 [Compound R926511] | > 4.33 µM |  | > 2 µM |  |  |  | > 4.33 µM |  |  |  |  |  |  |  | IC50 [5, 22]: > 10 µM
3 | OCCOc1cccc(Nc2ncc(F)c(Nc3ccc4c(c3)OCCO4)n2)c1 [Compound R935154] | > 4.33 µM | 0.127 µM |  |  | > 10 µM |  |  | 1.65 µM |  | 0.547 µM | 0.104 µM | 0.041 µM | 0.131 µM | 0.085 µM | 
4 | O=C(c1cc2cc(Nc3ncc(F)c(Nc4ccc5c(c4)OCCO5)n3)ccc2o1)N1CCNCC1 [Compound R926501] | > 4.33 µM |  |  | > 2 µM |  | > 2 µM | > 4.33 µM | 1.68 µM |  |  |  |  |  |  | IC50 [16]: > 10 µM; IC50 (Syk kinase [10]): 0.193 µM
5 | CC(C)(C)n1nc(-c2ccc(Cl)cc2)c2c(N)ncnc21 [PP2, reference compound] |  |  |  |  |  |  |  |  |  |  |  |  |  |  | phosphorylation of proteins downstream of LYN kinase but not Syk kinase (Syk kinase [17]): inhibition of phosphorylation of proteins downstream of LYN kinase but not Syk kinase
6 | CC(C)Oc1ccc(Nc2nc(Nc3cccc(OCCO)c3)ncc2F)cc1 [Compound R935156] | 4.05 µM | 0.149 µM |  |  | > 10 µM |  |  | 1.84 µM |  | 0.433 µM | < 0.22 µM | < 0.22 µM | 0.22 µM | < 0.22 µM | 
7 | Nc1cccc(Nc2ncc(F)c(Nc3ccc4c(c3)OCCO4)n2)c1 [Compound R950207] | > 4.33 µM | 0.164 µM |  |  | > 10 µM |  |  | 1.08 µM |  | 0.288 µM | < 0.22 µM | < 0.22 µM | < 0.22 µM | < 0.22 µM | 
8 | O=C(NCCO)c1cc2cc(Nc3ncc(F)c(Nc4cccc(O)c4)n3)ccc2o1 [Compound R926497] |  |  | > 10 µM | 1.23 µM |  | 1.11 µM |  | 3.27 µM | 1.88 µM |  |  |  |  |  | IC50 [16]: > 10 µM; IC50 ([1]; Low Density CHMC, anti-IgE activation, tryptase release, read-out: CHMC anti-IgE Tryptase IC50): 0.138 µM; IC50 [3]: 1.33 µM; IC50 [5, 22]: > 10 µM; IC50 [18]: 0.205 µM; IC50 [19]: 0.27 µM
9 | OCCOc1cccc(Nc2ncc(F)c(Nc3cccc(OCCO)c3)n2)c1 [Compound R935075] | > 4.33 µM | 0.93 µM |  | 1.21 µM | > 10 µM | 0.647 µM | > 4.33 µM | 5.37 µM | > 2 µM |  |  |  |  |  | IC50 [7]: < 0.22 µM
